Laboratory results as given in patent publication US4017637A, “Benzylamine analgesics” (priority 1975, dated 1977).
Counter-ions that a name gives are not always drawn.

System: rats
Experiment: Analgesic activity in rats, light beam on tip of tail (modified D'Amour and Smith procedure)
Format: in vivo, rat
Details: for ED50: Rattus norvegicus
Experimental: Rats weighing approximately 150 to 200 g. are placed in individual holders, and each holder in turn is situated so that a high intensity light beam shines on the tip of the tail. The intensity of the light beam is adjusted so that normal rats respond by moving their tails out of the light beam in 3 to 8 seconds. The average of two readings taken 20 minutes apart serves as a pre-drug control. Rats are selected for use whose control readings agree within 1 second. Compounds are administered and reaction times are measured every 20 minutes for 2 hours. Analgesic agents cause a significant increase in reaction time.

CN(C)C(c1cccc(O)c1)[C@H]1CCCC[C@H]1O (stereo partly drawn) [Cis-2-(α-Dimethylamino-m-Hydroxybenzyl) Cyclohexanol, Hydrochloride]
No. Rats Showing Analgesia/No. Rats Tested (I.M., 2.5 mg/kg): 5/10
No. Rats Showing Analgesia/No. Rats Tested (I.P., 3.12 mg/kg): 3/5
No. Rats Showing Analgesia/No. Rats Tested (I.P., 12.5 mg/kg): 4/5
No. Rats Showing Analgesia/No. Rats Tested (P.O., 5.0 mg/kg): 5/10

CN(C)C(c1ccccc1)[C@H]1CCCC[C@H]1O (relative stereo) [Cis-2-[α-Dimethylaminobenzyl]-Cyclohexanol]
No. Rats Showing Analgesia/No. Rats Tested (I.M., 6.25 mg/kg): 8/10
No. Rats Showing Analgesia/No. Rats Tested (I.P., 6.25 mg/kg): 9/10
No. Rats Showing Analgesia/No. Rats Tested (I.P., 12.5 mg/kg): 8/10
No. Rats Showing Analgesia/No. Rats Tested (P.O., 5.0 mg/kg): 6/10

CN1CC[C@]23c4c5ccc(O)c4O[C@H]2[C@@H](O)C=C[C@H]3[C@H]1C5 [morphine, reference compound]
ED50 (im): 2 mg/kg
ED50 (ip): 3.5 mg/kg
ED50 (po): 10 mg/kg

CN(C)C(c1cccc(O)c1)[C@H]1CCCC[C@H]1O (relative stereo) [1-cis-2-(α-dimethylamino-m-hydroxybenzyl)cyclohexanol]
No. Rats Showing Analgesia/No. Rats Tested (I.M., 0.41 mg/kg): 4/10
No. Rats Showing Analgesia/No. Rats Tested (I.M., 0.62 mg/kg): 7/10
No. Rats Showing Analgesia/No. Rats Tested (I.P., 3.12 mg/kg): 8/10
No. Rats Showing Analgesia/No. Rats Tested (I.P., 6.25 mg/kg): 6/10
No. Rats Showing Analgesia/No. Rats Tested (P.O., 3.12 mg/kg): 5/10
No. Rats Showing Analgesia/No. Rats Tested (P.O., 6.25 mg/kg): 7/10

CCC(=O)O[C@@H]1CCCC[C@@H]1C(c1cccc(OC)c1)N(C)C.Cl (relative stereo) [Cis-2-[α-Dimethylamino-m-Methoxybenzyl]Cyclohexanol Propionate, Hydrochloride]
No. Rats Showing Analgesia/No. Rats Tested (I.M., 15.0 mg/kg): 3/10
No. Rats Showing Analgesia/No. Rats Tested (I.P., 12.5 mg/kg): 3/5

COCOc1cccc(C([C@H]2CCCC[C@H]2O)N(C)C)c1 (relative stereo) [cis-2-[α-dimethylamino-m-(methoxymethoxy)benzyl]cyclohexanol]
No. Rats Showing Analgesia/No. Rats Tested (I.M., 2.5 mg/kg): 3/10
No. Rats Showing Analgesia/No. Rats Tested (I.M., 5.0 mg/kg): 5/10
No. Rats Showing Analgesia/No. Rats Tested (I.P., 6.25 mg/kg): 2/5
No. Rats Showing Analgesia/No. Rats Tested (I.P., 25.0 mg/kg): 5/5

COc1cccc(C([C@H]2CCCC[C@H]2O)N(C)C)c1 (relative stereo) [cis-2-(α-dimethylamino-m-methoxybenzyl)cyclohexanol]
No. Rats Showing Analgesia/No. Rats Tested (I.P., 25.0 mg/kg): 3/5
